# Experiments:
# human ROCKα/ROCKII mix = target: T1, human ROCKα/ROCKII mix (Homo sapiens, UniProt O75116); assay: Biochemical assay for ROCK (fluorescence polarization, ROCK IMAP Kit)
# T1 construct: purchased Upstate Biotechnology 14-451
# PKC epsilon = target: T2, PKC epsilon (Homo sapiens, UniProt Q02156); assay: Biochemical assay for PKC epsilon (fluorescence polarization, Protein Kinase C Assay Kit, Red); details: read-out: IC50 μM PKCε
# T2 construct: purchased Invitrogen P2282
# T2 sequence (Q02156 1-737): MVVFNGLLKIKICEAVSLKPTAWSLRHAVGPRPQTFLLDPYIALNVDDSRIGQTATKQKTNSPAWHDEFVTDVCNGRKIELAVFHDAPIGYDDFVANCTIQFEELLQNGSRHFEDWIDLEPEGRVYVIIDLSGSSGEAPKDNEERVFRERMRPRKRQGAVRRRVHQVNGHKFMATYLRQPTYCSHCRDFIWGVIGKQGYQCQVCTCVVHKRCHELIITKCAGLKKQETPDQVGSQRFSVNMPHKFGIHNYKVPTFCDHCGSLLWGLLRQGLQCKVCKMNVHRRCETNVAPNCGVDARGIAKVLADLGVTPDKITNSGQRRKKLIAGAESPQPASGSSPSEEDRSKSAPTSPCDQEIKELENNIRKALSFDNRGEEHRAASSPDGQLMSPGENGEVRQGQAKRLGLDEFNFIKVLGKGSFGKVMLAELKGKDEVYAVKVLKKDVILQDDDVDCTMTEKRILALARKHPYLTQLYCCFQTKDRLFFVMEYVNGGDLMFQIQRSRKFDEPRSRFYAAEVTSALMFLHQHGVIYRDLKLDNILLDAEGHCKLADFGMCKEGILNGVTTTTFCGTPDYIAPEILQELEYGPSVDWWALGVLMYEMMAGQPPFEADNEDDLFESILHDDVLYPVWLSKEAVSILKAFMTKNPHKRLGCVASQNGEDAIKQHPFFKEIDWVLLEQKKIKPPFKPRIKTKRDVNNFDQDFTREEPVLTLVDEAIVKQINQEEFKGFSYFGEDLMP
# In short: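 Read-out was fluorescence-polarization competition between phosphorylated substrate and a rhodamine PKC tracer for an anti-phosphoserine antibody, added with EDTA stop after an 80 min room-temperature kinase reaction with ATP and protein substrate (Mg2+/Ca2+ buffer). Enzyme (10 ng/ml final) was preincubated with compound for 30 min.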
# T1 sequence (O75116 11-552 limits assumed): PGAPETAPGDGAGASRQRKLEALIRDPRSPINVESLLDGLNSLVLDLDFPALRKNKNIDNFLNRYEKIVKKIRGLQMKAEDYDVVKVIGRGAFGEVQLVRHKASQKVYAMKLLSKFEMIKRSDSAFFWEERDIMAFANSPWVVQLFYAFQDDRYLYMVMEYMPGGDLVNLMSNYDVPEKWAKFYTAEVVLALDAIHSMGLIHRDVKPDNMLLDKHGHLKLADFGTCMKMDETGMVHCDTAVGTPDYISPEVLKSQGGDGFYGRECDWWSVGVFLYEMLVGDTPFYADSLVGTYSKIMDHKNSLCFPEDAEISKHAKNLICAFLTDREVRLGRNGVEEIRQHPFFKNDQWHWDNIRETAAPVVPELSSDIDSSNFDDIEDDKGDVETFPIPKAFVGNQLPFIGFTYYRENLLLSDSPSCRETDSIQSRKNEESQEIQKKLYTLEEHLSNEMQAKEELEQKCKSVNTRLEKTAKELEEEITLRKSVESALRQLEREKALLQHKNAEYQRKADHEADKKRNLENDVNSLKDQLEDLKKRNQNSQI
IC50 (human ROCKα/ROCKII mix),IC50 (PKC epsilon),SMILES
0.5 to 5 µM,0.5 to 5 µM,"NC(c1ccc(C(=O)Nc2ccncc2)cc1)C1CCCN1C(=O)Cc1cccc2ccccc12 (stereo not shown) [Compound 536, 4-{Amino-[1-(2-naphthalen-1-yl-acetyl)-pyrrolidin-2-yl]-methyl}-N-pyridin-4-yl-benzamide]"
0.5 to 5 µM,0.5 to 5 µM,"NC(c1ccc(C(=O)Nc2ccncc2)cc1)C1CCCN1C(=O)Cc1ccc(-c2ccccc2)cc1 (stereo not shown) [Compound 537, 4-{Amino-[1-(2-biphenyl-4-yl-acetyl)-pyrrolidin-2-yl]-methyl}-N-pyridin-4-yl-benzamide]"
0.5 to 5 µM,5 to 50 µM,"NC(c1ccc(C(=O)Nc2ccncc2)cc1)C1CCCN1C(=O)Cc1ccc(O)c([N+](=O)[O-])c1 (stereo not shown) [Compound 540, 4-(Amino-{1-[2-(4-hydroxy-3-nitro-phenyl)-acetyl]-pyrrolidin-2-yl}-methyl)-N-pyridin-4-yl-benzamide]"
0.5 to 5 µM,5 to 50 µM,"NC(c1ccc(C(=O)Nc2ccncc2)cc1)C1CCCN1C(=O)Cc1cncc(Br)c1 (stereo not shown) [Compound 543, 4-(Amino-{1-[2-(5-bromo-pyridin-3-yl)-acetyl]-pyrrolidin-2-yl}-methyl)-N-pyridin-4-yl-benzamide]"
0.5 to 5 µM,0.5 to 5 µM,"NC(c1ccc(C(=O)Nc2ccncc2)cc1)C1CCCN1C(=O)Cc1c[nH]c2ccccc12 (stereo not shown) [Compound 544, 4-{Amino-[1-(2-1H-indol-3-yl-acetyl)-pyrrolidin-2-yl]-methyl}-N-pyridin-4-yl-benzamide]"
0.5 to 5 µM,0.5 to 5 µM,"NC(c1ccc(C(=O)Nc2ccncc2)cc1)C1CCCN1C(=O)Cc1csc(-c2ccccc2)n1 (stereo not shown) [Compound 546, 4-(Amino-{1-[2-(2-phenyl-thiazol-4-yl)-acetyl]-pyrrolidin-2-yl}-methyl)-N-pyridin-4-yl-benzamide]"
0.05 to 0.5 µM,5 to 50 µM,"NC(c1ccc(C(=O)Nc2ccncc2)cc1)C1CCCN1C(=O)Cc1cccs1 (stereo not shown) [Compound 547, 4-{Amino-[1-(2-thiophen-2-yl-acetyl)-pyrrolidin-2-yl]-methyl}-N-pyridin-4-yl-benzamide]"
0.5 to 5 µM,5 to 50 µM,"NC(c1ccc(C(=O)Nc2ccncc2)cc1)C1CCCN1C(=O)C1(c2cccs2)CC1 (stereo not shown) [Compound 549, 4-{Amino-[1-(1-thiophen-2-yl-cyclopropanecarbonyl)-pyrrolidin-2-yl]-methyl}-N-pyridin-4-yl-benzamide]"
0.5 to 5 µM,5 to 50 µM,"NC(c1ccc(C(=O)Nc2ccncc2)cc1)C1CCCN1C(=O)C1(c2ccsc2)CC1 (stereo not shown) [Compound 551, 4-{Amino-[1-(1-thiophen-3-yl-cyclopropanecarbonyl)-pyrrolidin-2-yl]-methyl}-N-pyridin-4-yl-benzamide]"
0.05 to 0.5 µM,5 to 50 µM,"NC(c1ccc(C(=O)Nc2ccncc2)cc1)C1CCCN1C(=O)C1Cc2ccccc21 (stereo not shown) [Compound 552, 4-{Amino-[1-(bicyclo[4.2.0]octa-1,3,5-triene-7-carbonyl)-pyrrolidin-2-yl]-methyl}-N-pyridin-4-yl-benzamide]"
0.5 to 5 µM,0.5 to 5 µM,"NC(c1ccc(C(=O)Nc2ccncc2)cc1)C1CCCN1C(=O)C(c1ccccc1)C1CCCCC1 (stereo not shown) [Compound 555, 4-{Amino-[1-(2-cyclohexyl-2-phenyl-acetyl)-pyrrolidin-2-yl]-methyl}-N-pyridin-4-yl-benzamide]"
0.5 to 5 µM,5 to 50 µM,"NC(c1ccc(C(=O)Nc2ccncc2)cc1)C1CCCN1C(=O)C(c1ccccc1)C1CCCC1 (stereo not shown) [Compound 556, 4-{Amino-[1-(2-cyclopentyl-2-phenyl-acetyl)-pyrrolidin-2-yl]-methyl}-N-pyridin-4-yl-benzamide]"
0.05 to 0.5 µM,0.5 to 5 µM,"NC(c1ccc(C(=O)Nc2ccncc2)cc1)C1CCCN1C(=O)Cc1cccc(Br)c1 (stereo not shown) [Compound 557, 4-(Amino-{1-[2-(3-bromo-phenyl)-acetyl]-pyrrolidin-2-yl}-methyl)-N-pyridin-4-yl-benzamide]"
0.05 to 0.5 µM,0.5 to 5 µM,"NC(c1ccc(C(=O)Nc2ccncc2)cc1)C1CCCN1C(=O)Cc1ccc(Br)cc1 (stereo not shown) [Compound 558, 4-(Amino-{1-[2-(4-bromo-phenyl)-acetyl]-pyrrolidin-2-yl}-methyl)-N-pyridin-4-yl-benzamide]"
0.5 to 5 µM,5 to 50 µM,"NC(c1ccc(C(=O)Nc2ccncc2)cc1)C1CCCN1C(=O)Cc1ccc(C(F)(F)F)cc1 (stereo not shown) [Compound 559, 4-(Amino-{1-[2-(4-trifluoromethyl-phenyl)-acetyl]-pyrrolidin-2-yl}-methyl)-N-pyridin-4-yl-benzamide]"
0.5 to 5 µM,5 to 50 µM,"NC(c1ccc(C(=O)Nc2ccncc2)cc1)C1CCCN1C(=O)Cc1cccc(Cl)c1 (stereo not shown) [Compound 560, 4-(Amino-{1-[2-(3-chloro-phenyl)-acetyl]-pyrrolidin-2-yl}-methyl)-N-pyridin-4-yl-benzamide]"
0.5 to 5 µM,0.5 to 5 µM,"NC(c1ccc(C(=O)Nc2ccncc2)cc1)C1CCCN1C(=O)Cc1ccc(Cl)cc1 (stereo not shown) [Compound 561, 4-(Amino-{1-[2-(4-chloro-phenyl)-acetyl]-pyrrolidin-2-yl}-methyl)-N-pyridin-4-yl-benzamide]"
0.5 to 5 µM,0.5 to 5 µM,"CC(C)C(C(=O)N1CCCC1C(N)c1ccc(C(=O)Nc2ccncc2)cc1)c1ccc(Cl)cc1 (stereo not shown) [Compound 562, 4-(Amino-{1-[2-(4-chloro-phenyl)-3-methyl-butyryl]-pyrrolidin-2-yl}-methyl)-N-pyridin-4-yl-benzamide]"
0.5 to 5 µM,0.5 to 5 µM,"CC(C)(C(=O)N1CCCC1C(N)c1ccc(C(=O)Nc2ccncc2)cc1)c1ccc(Cl)cc1 (stereo not shown) [Compound 563, 4-(Amino-{1-[2-(4-chloro-phenyl)-2-methyl-propionyl]-pyrrolidin-2-yl}-methyl)-N-pyridin-4-yl-benzamide]"
0.5 to 5 µM,0.5 to 5 µM,"NC(c1ccc(C(=O)Nc2ccncc2)cc1)C1CCCN1C(=O)C1(c2ccc(Cl)cc2)CC1 (stereo not shown) [Compound 564, 4-(Amino-{1-[1-(4-chloro-phenyl)-cyclopropanecarbonyl]-pyrrolidin-2-yl}-methyl)-N-pyridin-4-yl-benzamide]"
0.5 to 5 µM,0.5 to 5 µM,"NC(c1ccc(C(=O)Nc2ccncc2)cc1)C1CCCN1C(=O)C1(c2ccc(Cl)cc2)CCC1 (stereo not shown) [Compound 565, 4-(Amino-{1-[1-(4-chloro-phenyl)-cyclobutanecarbonyl]-pyrrolidin-2-yl}-methyl)-N-pyridin-4-yl-benzamide]"
0.5 to 5 µM,0.5 to 5 µM,"NC(c1ccc(C(=O)Nc2ccncc2)cc1)C1CCCN1C(=O)C1(c2ccc(Cl)cc2)CCCC1 (stereo not shown) [Compound 566, 4-(Amino-{1-[1-(4-chloro-phenyl)-cyclopentanecarbonyl]-pyrrolidin-2-yl}-methyl)-N-pyridin-4-yl-benzamide]"
0.05 to 0.5 µM,5 to 50 µM,"NC(c1ccc(C(=O)Nc2ccncc2)cc1)C1CCCN1C(=O)Cc1ccccc1F (stereo not shown) [Compound 567, 4-(Amino-{1-[2-(2-fluoro-phenyl)-acetyl]-pyrrolidin-2-yl}-methyl)-N-pyridin-4-yl-benzamide]"
0.5 to 5 µM,5 to 50 µM,NC(c1ccc(C(=O)Nc2ccncc2)cc1)C1CCCN1C(=O)Cc1cccc(F)c1 (stereo not shown) [Compound 569]
0.5 to 5 µM,0.5 to 5 µM,"NC(c1ccc(C(=O)Nc2ccncc2)cc1)C1CCCN1C(=O)C1(c2cccc(F)c2)CCCC1 (stereo not shown) [Compound 570, 4-(Amino-{1-[1-(3-fluoro-phenyl)-cyclopentanecarbonyl]-pyrrolidin-2-yl}-methyl)-N-pyridin-4-yl-benzamide]"
0.5 to 5 µM,5 to 50 µM,"COc1ccc(CC(=O)N2CCCC2C(N)c2ccc(C(=O)Nc3ccncc3)cc2)cc1F (stereo not shown) [Compound 571, 4-(Amino-{1-[2-(3-fluoro-4-methoxy-phenyl)-acetyl]-pyrrolidin-2-yl}-methyl)-N-pyridin-4-yl-benzamide]"
0.5 to 5 µM,5 to 50 µM,"NC(c1ccc(C(=O)Nc2ccncc2)cc1)C1CCCN1C(=O)Cc1ccc(F)cc1 (stereo not shown) [Compound 572, 4-(Amino-{1-[2-(4-fluoro-phenyl)-acetyl]-pyrrolidin-2-yl}-methyl)-N-pyridin-4-yl-benzamide]"
0.5 to 5 µM,0.5 to 5 µM,"CC(C)(C(=O)N1CCCC1C(N)c1ccc(C(=O)Nc2ccncc2)cc1)c1ccc(F)cc1 (stereo not shown) [Compound 573, 4-(Amino-{1-[2-(4-fluoro-phenyl)-2-methyl-propionyl]-pyrrolidin-2-yl}-methyl)-N-pyridin-4-yl-benzamide]"
0.5 to 5 µM,0.5 to 5 µM,"NC(c1ccc(C(=O)Nc2ccncc2)cc1)C1CCCN1C(=O)C1(c2ccc(F)cc2)CC1 (stereo not shown) [Compound 574, 4-(Amino-{1-[1-(4-fluoro-phenyl)-cyclopropanecarbonyl]-pyrrolidin-2-yl}-methyl)-N-pyridin-4-yl-benzamide]"
